# From paper PMC11858597, “Synthesis, Anticancer Screening, and In Silico Evaluations of Thieno[2,3-c]pyridine Derivatives as Hsp90 Inhibitors” (Pharmaceuticals, 2025)
# How the values were obtained:
# [1] = tested on: MCF7; assay: MTT assay, MCF7 breast cancer cells; assay type: cell-based; details: for inhibition at 1 µM / inhibition at 10 µM / inhibition at 100 µM / % cell growth inhibition: 72 h; for inhibition at 1 µM / inhibition at 10 µM / inhibition at 100 µM: read-out: % cell growth inhibition; for IC50: MCF7, 72 h
# Excerpt: (§1) An MTT assay was used to evaluate the final compounds’ anticancer activity against MCF7 and T47D (breast cancer cells), HSC3 (head and neck cancer cells), and RKO (colorectal cancer cells) cell lines, using cisplatin as a reference standard. Table 1 presents the percentage growth inhibition of all compounds against the various cancer cell lines.
# (§2) The cancer cell lines MCF7 and T47D (breast cancer cells), HSC3 (head and neck cancer cells), and RKO (colorectal cancer cells) were kindly provided by Prof. Stephan Feller, Institute of Molecular Medicine, Martin Luther University, Halle, Germany. The human fibroblast (PDL) cell line was obtained as a kind gift from Prof. Khaled Al-Qaoud (Yarmouk University, Irbid, Jordan). All cell lines were cultured in Dulbecco’s Modified Eagle’s Medium (DMEM) supplemented with 10% fetal bovine serum, 100 µg/mL streptomycin, 100 U/mL penicillin, and 1% non-essential amino acid at 37 °C with 5% CO2 in a humidified CO2 incubator. The cell cultures were grown to confluence, and the medium was changed two times weekly.
# (§3) The MTT (3-[4,5-dimethylthiazol-2-yl]-2,5-diphenyl tetrazolium bromide) assay was used to investigate cell viability and to calculate the half-maximal inhibitory concentration (IC50) values of the compounds 6(a–k) including standard reference cisplatin. Furthermore, […] stock solutions of the compounds were prepared in DMSO where all compounds were completely soluble. Cells were seeded in 96-well tissue culture plates at a density of 6,000 cells/well for MCF7, T47D, and PDL cells and at a density of 4000 cells/well for RKO and HSC3 cells. After 24 h of seeding, investigated cells were treated with three concentrations (1, 10, and 100 µm) of the compounds for 72 h. At the end of the treatment time, the supernatant medium was aspirated, and 50 µL of fresh DMEM containing MTT (0.5 mg/mL) was added to each well. Cells were then incubated at 37 °C for 2–4 h. After that, the medium was completely removed, and 50 µL of DMSO was added to each well to dissolve the precipitated formazan crystals formed by viable cells. Cell viability, represented by the absorbance of the formazan solution, was measured at 570 nm using the Synergy HTX Multimode Reader (BioTek, Vermont, USA), and cell viability was determined as described in the literature. For each concentration, the relative cell viability was calculated as follows: relative cell viability = (mean treatment absorbance/mean control absorbance) × 100%. Assays were performed in triplicate on three independent experiments. […] IC50 values were then calculated using the four-parameter logistic function in the SigmaPlot software (version 12.5) and presented as the mean ± SD from three independent experiments.
# [2] = tested on: T47D; assay: MTT assay, T47D breast cancer cells; assay type: cell-based; details: 72 h; for inhibition at 1 µM / inhibition at 10 µM / inhibition at 100 µM: read-out: % cell growth inhibition
# Excerpt: as §1, §2, §3
# [3] = tested on: HSC3; assay: MTT assay, HSC3 head and neck cancer cells; assay type: cell-based; details: for inhibition at 1 µM / inhibition at 10 µM / inhibition at 100 µM: HSC-3, 72 h, read-out: % cell growth inhibition; for inhibition at 1 µM / inhibition at 10 µM / inhibition at 100 µM / % cell growth inhibition: 72 h; for IC50: HSC3, 72 h
# Excerpt: as §1, §2, §3
# [4] = tested on: RKO; assay: MTT assay, RKO colorectal cancer cells; assay type: cell-based; details: 72 h; for inhibition at 1 µM / inhibition at 10 µM / inhibition at 100 µM: read-out: % cell growth inhibition
# Excerpt: as §1, §2, §3
# [5] = tested on: PDL; assay: MTT assay, normal fibroblast cell line (PDL); assay type: cell-based, human; details: 72 h; for IC50: PDL normal fibroblasts
# Excerpt: To understand the selectivity of compounds, a normal fibroblast cell line (human periodontal ligament-PDL) is also included in this IC50 determination.
# as §2, §3
Structure (SMILES),"inhibition at 1 µM ([1]; Homo sapiens, MCF7, 1 µM)","inhibition at 10 µM ([1]; Homo sapiens, MCF7, 10 µM)","inhibition at 100 µM ([1]; Homo sapiens, MCF7, 100 µM)","inhibition at 1 µM ([2]; Homo sapiens, 1 µM)","inhibition at 10 µM ([2]; Homo sapiens, 10 µM)","inhibition at 100 µM ([2]; Homo sapiens, 100 µM)","inhibition at 1 µM ([3]; Homo sapiens, HSC3, 1 µM)","inhibition at 10 µM ([3]; Homo sapiens, HSC3, 10 µM)","inhibition at 100 µM ([3]; Homo sapiens, HSC3, 100 µM)","inhibition at 1 µM ([4]; Homo sapiens, 1 µM)","inhibition at 10 µM ([4]; Homo sapiens, 10 µM)","inhibition at 100 µM ([4]; Homo sapiens, 100 µM)",further results
"CCOC(=O)c1c(NC(=O)CN2CCOCC2)sc2c1CCN(C(=O)OCC)C2 [6h, Diethyl 2-(2-morpholinoacetamido)-4,7-dihydrothieno[2,3-c]pyridine-3,6(5H)-di-carboxylate]",0%,20.3%,77.2%,0%,17.8%,78.2%,0%,9.88%,77.9%,8.76%,19.1%,93.3%,
"CCOC(=O)c1c(NC(=O)CN2CCC(C)CC2)sc2c1CCN(C(=O)OCC)C2 [6b, Diethyl 2-(2-(4-methylpiperidin-1-yl)acetamido)-4,7-dihydrothieno[2,3-c]pyridine-3,6-(5H)-dicarboxylate]",2.74%,29.7%,83.2%,7.79%,24.4%,82%,4.06%,38%,79.4%,10.7%,39.3%,94.1%,
CCOC(=O)c1c(NC(=O)CN2CCCCC2)sc2c1CCN(C(=O)OCC)C2 [6a],2.96%,39.5%,91.6%,9.31%,38.6%,88.1%,4.26%,59.8%,92.6%,5.71%,53%,93.5%,"IC50 ([1]; Homo sapiens): 73.7 ± 4.3 µM; % cell growth inhibition ([1]; MCF7, 1 µM): weak inhibition; IC50 ([2]; Homo sapiens): 97.2 ± 4.4 µM; IC50 ([3]; Homo sapiens, HSC-3): 14.5 ± 4.3 µM; IC50 ([4]; Homo sapiens): 24.4 ± 7.2 µM; IC50 ([5]; Homo sapiens, Fibroblast): > 100 µM; toxicity to normal fibroblast cell lines, PDL ([5]; PDL): no toxicity"
"CCOC(=O)c1c(NC(=O)CN2CCN(c3ncccn3)CC2)sc2c1CCN(C(=O)OCC)C2 [6k, Diethyl 2-(2-(4-(pyrimidin-2-yl)piperazin-1-yl)acetamido)-4,7-dihydrothieno[2,3-c]-pyridine-3,6(5H)-dicarboxylate]",0%,12.2%,80%,0%,10.1%,76.5%,0%,11.3%,86.2%,0%,22.2%,96.1%,
"CCOC(=O)c1c(NC(=O)CN2CCN(C(=O)c3ccco3)CC2)sc2c1CCN(C(=O)OCC)C2 [6j, Diethyl 2-(2-(4-(furan-2-carbonyl)piperazin-1-yl)acetamido)-4,7-dihydrothieno[2,3-c]-pyridine-3,6(5H)-dicarboxylate]",0%,16.2%,76.5%,0%,1.19%,76%,0%,29.9%,86.4%,0%,17.3%,96.8%,
"CCOC(=O)c1c(NC(=O)CN2CCN(CC)CC2)sc2c1CCN(C(=O)OCC)C2 [6e, Diethyl 2-(2-(4-ethylpiperazin-1-yl)acetamido)-4,7-dihydrothieno[2,3-c]pyridine-3,6(5H)-dicarboxylate]",4.67%,11.7%,74.2%,5.23%,3.12%,79.4%,3.26%,5.51%,75.8%,6.17%,7.24%,90.1%,
"CCOC(=O)c1c(NC(=O)CN2CCN(C)CC2)sc2c1CCN(C(=O)OCC)C2 [6d, Diethyl 2-(2-(4-methylpiperazin-1-yl)acetamido)-4,7-dihydrothieno[2,3-c]pyridine-3,6-(5H)-dicarboxylate]",1.42%,3.7%,79.3%,0%,2.54%,82.1%,0%,0%,83.9%,0%,0%,94.4%,
"CCOC(=O)c1c(NC(=O)CN2CCN(C(=O)OC(C)(C)C)CC2)sc2c1CCN(C(=O)OCC)C2 [6f, Diethyl 2-(2-(4-(tert-butoxycarbonyl)piperazin-1-yl)acetamido)-4,7-dihydrothieno[2,3-c]-pyridine-3,6(5H)-dicarboxylate]",7.34%,10%,39%,7.62%,16.2%,34.1%,0%,16.8%,45.8%,6.11%,17.2%,47.6%,"% cell growth inhibition ([1]; MCF7, 100 µM): weaker inhibition"
"N.N.[Cl][Pt][Cl] [Cisplatin, reference compound]",,,,,,,,,,,,,"% cell growth inhibition ([1]; MCF7, 1 µM): 11.23%; % cell growth inhibition ([1]; MCF7, 10 µM): 57.32%; % cell growth inhibition ([1]; MCF7, 100 µM): 97.41%; IC50 [1]: 5.8 ± 0.9 µM; % cell growth inhibition ([2]; 1 µM): 29.09%; % cell growth inhibition ([2]; 10 µM): 89.65%; % cell growth inhibition ([2]; 100 µM): 98.20%; IC50 [2]: 2.6 ± 0.6 µM; % cell growth inhibition ([3]; HSC3, 1 µM): 29.33%; % cell growth inhibition ([3]; HSC3, 10 µM): 84.74%; % cell growth inhibition ([3]; HSC3, 100 µM): 97.87%; IC50 [3]: 2.7 ± 0.2 µM; % cell growth inhibition ([4]; 1 µM): 46.06%; % cell growth inhibition ([4]; 10 µM): 92.77%; % cell growth inhibition ([4]; 100 µM): 95.04%; IC50 [4]: 1.7 ± 0.4 µM; IC50 [5]: 15.5 ± 2.1 µM"
"CCOC(=O)c1c(NC(=O)CN2CCNCC2)sc2c1CCN(C(=O)OCC)C2 [6c, Diethyl 2-(2-(piperazin-1-yl)acetamido)-4,7-dihydrothieno[2,3-c]pyridine-3,6(5H)-dicarboxylate]",0%,22.1%,81%,3.7%,28.1%,80.8%,6.71%,30%,83.4%,17.1%,30.9%,93.6%,
"CCOC(=O)c1c(NC(=O)CN2CCN(c3ccccc3OC)CC2)sc2c1CCN(C(=O)OCC)C2 [6g, Diethyl 2-(2-(4-(2-methoxyphenyl)piperazin-1-yl)acetamido)-4,7-dihydrothieno[2,3-c]-pyridine-3,6(5H)-dicarboxylate]",3.4%,6.36%,57.3%,0%,14.2%,59.9%,0%,15.9%,56.9%,0.53%,14.6%,68.4%,"% cell growth inhibition ([1]; MCF7, 100 µM): weaker inhibition"
